# Patent EP0358957A1, “Fused tetrahydropyridineacetic acid derivatives, process for their preparation, and use of such compounds for the cardioprotection” (BOEHRINGER INGELHEIM KG, priority 1988, dated 1990)
# Tested on: isolierten Rattenherzen
# Test: Isolated rat heart, method II: coronary flow throttled by 75 %, prevention of the fall in contraction amplitude
# Parameters: species or system Ratten
# Conditions: Method II: coronary flow reduced by 75 %; substance added to perfusion medium during flow reduction; concentration needed to prevent the fall in contraction amplitude; read-out: Benötige Konzentrationen
# Excerpt: Wird ein, längere Zeit unter ischämischen Bedingungen gehaltenes, isoliertes Herz wieder normal perfundiert, so tritt keine sofortige Normalisierung der Herzfunktion ein. Es findet sich vielmehr eine vorübergehende Periode, die durch Kontraktur und Arrhytmien gekennzeichnet ist. Diese Arrhythmiephase ist durch Veränderungen von Funktion und Struktur der Myocardzelle mit intrazellulärer Calciumüberladung bedingt (Hess u. Manson, J. Mol. Cell. Cardiol. 16, 969, 1984). Cardioprotektiv wirksame Verbindungen wie Verapamil und Diltiazem verringern die Calciumüberladung und verbessern das Kontraktionsverhalten bei Reperfusion (Watts et al, Am. J. Physiol. 238, H 909, 1980; Meno et al, Am. J. Physiol. 247, H 380, 1984), Die cardioprotektive Wirkung wird an isolierten Rattenherzen unter Ischämie und anschließender Reperfusion untersucht.
# Wird der Coronarfluß isolierter Herzen um 75 % gedrosselt, so reagiert das Herz zunächst mit einer Abnahme der Kontraktionsamplitude, ein Herzstillstand tritt erst innerhalb einer Stunde ein. Cardioprotektive Substanzen, während der Periode der Flußreduzierung dem Perfusionsmedium zugesetzt, verhindern den Abfall der Kontraktionsamplitude.
row,SMILES,minimal effective concentration [µg/mL]
1,CCCCNC(=O)C(CCc1ccccc1)C1NCCc2cc(OC)c(OC)cc21 (stereo not drawn) [E],1
2,COc1cc2c(cc1OC)C(C(CCc1ccccc1)C(=O)NCCc1ccncc1)NCC2 (stereo not drawn) [D],3
3,"C=CCN(C1=NCCN1)c1c(Cl)cccc1Cl [Alinidin, reference compound]",8.3
